For 2 compounds, IC50, viability and Activity results are on record in ChEMBL document CHEMBL6121046, “Discovery of Novel Hydrazide-Based HDAC3 Inhibitors as Epigenetic Immunomodulators for Cancer Immunotherapy” (J Med Chem, 2025).

One assay relates to HeLa. Nature of the assay: Antiproliferative activity against human HeLa cells measured after 48 hrs incubation by MTT assay relative to control. Format: functional, cell-based. On the technique in general: Tetrazolium dyes change colour on reduction, which living cells bring about.
A further assay addresses T1, Histone deacetylase 7 (Homo sapiens, UniProt Q8WUI4).
T1 sequence (Q8WUI4 whole entry): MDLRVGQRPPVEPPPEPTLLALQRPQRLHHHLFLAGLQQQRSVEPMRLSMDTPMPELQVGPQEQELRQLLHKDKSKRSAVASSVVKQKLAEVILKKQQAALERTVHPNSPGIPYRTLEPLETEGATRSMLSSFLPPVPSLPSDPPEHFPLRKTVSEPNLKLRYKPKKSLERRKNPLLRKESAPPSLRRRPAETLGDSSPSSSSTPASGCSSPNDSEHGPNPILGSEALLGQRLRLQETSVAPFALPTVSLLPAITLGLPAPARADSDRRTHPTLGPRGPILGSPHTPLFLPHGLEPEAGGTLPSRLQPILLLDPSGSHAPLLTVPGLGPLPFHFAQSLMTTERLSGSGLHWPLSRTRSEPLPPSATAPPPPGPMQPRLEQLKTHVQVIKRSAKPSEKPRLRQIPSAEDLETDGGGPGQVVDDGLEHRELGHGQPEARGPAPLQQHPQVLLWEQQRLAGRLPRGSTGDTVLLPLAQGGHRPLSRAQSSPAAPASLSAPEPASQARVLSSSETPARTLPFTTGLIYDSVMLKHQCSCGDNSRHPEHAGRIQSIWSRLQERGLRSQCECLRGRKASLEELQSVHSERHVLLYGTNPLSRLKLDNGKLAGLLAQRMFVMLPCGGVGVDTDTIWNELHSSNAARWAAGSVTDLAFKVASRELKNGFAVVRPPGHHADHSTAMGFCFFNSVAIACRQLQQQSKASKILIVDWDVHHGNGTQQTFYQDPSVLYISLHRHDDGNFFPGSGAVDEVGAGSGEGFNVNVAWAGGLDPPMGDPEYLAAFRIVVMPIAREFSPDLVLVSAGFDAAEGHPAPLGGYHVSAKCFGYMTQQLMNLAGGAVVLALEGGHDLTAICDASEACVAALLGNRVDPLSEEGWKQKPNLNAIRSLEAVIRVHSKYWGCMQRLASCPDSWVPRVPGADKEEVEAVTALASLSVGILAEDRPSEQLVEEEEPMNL
Nature of the assay: Inhibition of human recombinant HDAC7 pre-incubated with compounds for 10 mins measured followed by 60 mins of substrate addition.

The subject of assay [1] is MC-38. Nature of the assay: Antiproliferative activity against mouse MC38 cells measured after 48 hrs incubation by MTT assay relative to control. Format: functional, cell-based. As to conditions: MC-38, 48 h.
For assay [2], the system named is MC-38. Nature of the assay: Induction of apoptosis in mouse MC38 cells assessed as viable cells at 4 uM measured after 48 hrs by FITC/PI staining based flow cytometry (reference value: 82.07%). As to conditions: read-out: Activity. Format: functional. In general terms: In flow cytometry, cells or beads pass a laser one at a time.
Assay [3] has as its system MC-38. Nature of the assay: Effect on acetylated SMC3 in mouse MC38 cells at 0.1 to 2 uM measured after 24 hrs incubation by Western blot analysis. Format: functional, cell-based. As to conditions: dose 0.1-2 µM. In general terms: A western blot detects proteins with antibodies after separation by electrophoresis.
For assay [4], the system named is MC-38. Nature of the assay: Induction of apoptosis in mouse MC38 cells assessed as late apoptotic cells at 1 uM measured after 48 hrs by FITC/PI staining based flow cytometry (reference value: 5.07%). Format: functional.
The test system of a further assay is HCT-116. Nature of the assay: Antiproliferative activity against human HCT-116 cells measured after 48 hrs incubation by MTT assay relative to control. Format: functional, cell-based. To be noted: HCT-116, 48 h.
For the next assay, the target named is Histone deacetylase 3 (Homo sapiens, UniProt O15379). Nature of the assay: Inhibition of human recombinant HDAC3 pre-incubated with compounds for 10 mins measured followed by 60 mins of substrate addition.
Assay [5] concerns the target T2, Protein deacetylase HDAC6 (Homo sapiens, UniProt Q9UBN7).
T2 sequence (Q9UBN7 whole entry): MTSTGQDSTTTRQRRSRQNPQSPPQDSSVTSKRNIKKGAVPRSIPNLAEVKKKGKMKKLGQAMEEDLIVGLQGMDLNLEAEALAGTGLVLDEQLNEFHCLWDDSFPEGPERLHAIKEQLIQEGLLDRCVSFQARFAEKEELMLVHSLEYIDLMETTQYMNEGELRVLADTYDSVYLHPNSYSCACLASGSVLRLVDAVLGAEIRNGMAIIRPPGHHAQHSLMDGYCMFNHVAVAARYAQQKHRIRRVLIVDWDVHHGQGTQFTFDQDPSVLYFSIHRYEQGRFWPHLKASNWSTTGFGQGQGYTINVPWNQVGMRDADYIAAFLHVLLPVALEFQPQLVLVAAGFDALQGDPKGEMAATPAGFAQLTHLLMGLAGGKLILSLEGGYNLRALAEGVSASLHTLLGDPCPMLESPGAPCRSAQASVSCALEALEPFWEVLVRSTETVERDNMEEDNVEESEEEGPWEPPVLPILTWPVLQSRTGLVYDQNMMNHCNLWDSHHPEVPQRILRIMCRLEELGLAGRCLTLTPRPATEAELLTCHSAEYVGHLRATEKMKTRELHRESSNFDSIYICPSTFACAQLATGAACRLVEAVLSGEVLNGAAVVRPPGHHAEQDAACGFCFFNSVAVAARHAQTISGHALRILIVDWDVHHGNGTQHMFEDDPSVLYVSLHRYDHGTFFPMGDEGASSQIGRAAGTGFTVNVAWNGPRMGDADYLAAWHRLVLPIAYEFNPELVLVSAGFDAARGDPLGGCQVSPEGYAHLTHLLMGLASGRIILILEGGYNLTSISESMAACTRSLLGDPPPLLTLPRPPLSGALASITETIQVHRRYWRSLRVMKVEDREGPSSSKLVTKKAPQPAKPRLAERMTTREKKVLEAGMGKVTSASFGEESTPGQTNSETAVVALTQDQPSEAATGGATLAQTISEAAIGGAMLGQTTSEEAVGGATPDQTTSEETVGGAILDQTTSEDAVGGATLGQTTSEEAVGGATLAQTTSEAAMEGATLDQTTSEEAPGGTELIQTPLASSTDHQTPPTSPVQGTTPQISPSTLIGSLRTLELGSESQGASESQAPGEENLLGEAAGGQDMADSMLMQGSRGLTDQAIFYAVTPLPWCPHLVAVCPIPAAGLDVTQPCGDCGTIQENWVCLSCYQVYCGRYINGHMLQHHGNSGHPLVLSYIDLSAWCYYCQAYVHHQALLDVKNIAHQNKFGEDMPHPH
Nature of the assay: Inhibition of human recombinant HDAC6 pre-incubated with compounds for 10 mins measured followed by 60 mins of substrate addition.

In assay [6] the test system is MC-38. Nature of the assay: Cell cycle arrest in mouse MC38 cells assessed as increase in accumulation of cells at G2/M phase measured after 48 hrs by flow cytometry. Format: functional, cell-based. To be noted: dose 1-8 µM.
For assay [7], the system named is MC-38. Nature of the assay: Induction of apoptosis in mouse MC38 cells assessed as early apoptotic cells at 8 uM measured after 48 hrs by FITC/PI staining based flow cytometry (Rvb =12.27%). Format: functional.
Assay [8] deals with MC-38. Nature of the assay: Induction of apoptosis in mouse MC38 cells assessed as necrotic cells at 4 uM measured after 48 hrs by FITC/PI staining based flow cytometry (reference value: 0.56%). Format: functional.
For assay [9], the system named is MC-38. Nature of the assay: Induction of apoptosis in mouse MC38 cells assessed as necrotic cells at 2 uM measured after 48 hrs by FITC/PI staining based flow cytometry (reference value: 0.56%). Format: functional.
The test system of assay [10] is MC-38. Nature of the assay: Effect on acetylated alpha-tubulin in mouse MC38 cells at 0.1 to 2 uM measured after 24 hrs incubation by Western blot analysis. Format: functional, cell-based. To be noted: dose 0.1-2 µM.

Each structure is given as a SMILES string. Activity calls are given as the source filed them. No cut-off for these calls is given here.

Chain of Histone deacetylase 3 (O15379 whole entry): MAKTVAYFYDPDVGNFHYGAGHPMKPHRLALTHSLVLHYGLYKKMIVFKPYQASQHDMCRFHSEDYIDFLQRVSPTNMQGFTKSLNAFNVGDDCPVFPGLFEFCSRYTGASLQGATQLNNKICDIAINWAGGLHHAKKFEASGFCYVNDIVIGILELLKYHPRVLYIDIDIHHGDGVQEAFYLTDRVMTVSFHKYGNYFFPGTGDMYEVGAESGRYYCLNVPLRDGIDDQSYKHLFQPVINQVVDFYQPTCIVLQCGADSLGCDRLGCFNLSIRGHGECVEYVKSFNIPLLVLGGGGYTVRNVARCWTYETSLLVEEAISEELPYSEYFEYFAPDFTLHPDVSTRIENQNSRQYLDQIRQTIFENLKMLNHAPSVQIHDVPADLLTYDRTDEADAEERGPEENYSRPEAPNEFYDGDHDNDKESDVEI

One may read the IC50 as the concentration at which inhibition is half-maximal. Consider `CCCNNC(=O)c1ccc(CNC(=O)c2cnc(-c3ccc4occc4c3)[nH]2)cc1`, for which the IC50 with HeLa is 2240 nM; on Histone deacetylase 7, more than 10000 nM; in the assay with MC-38 [1], 1800 nM; in the assay on HCT-116 it was 100 nM; at Histone deacetylase 3, 53 nM; in assay [5], more than 10000 nM. Also, in the assay with MC-38 [2], the viability at 4 µM was 18.2%. In addition, the outcome in the assay with MC-38 [3] and with MC-38 [10] was inactive. The Activity was determined as 35% with MC-38 [4], 19.83% in the assay on MC-38 [7], 2.1% with MC-38 [8] and 2.15% in the assay on MC-38 [9]. In addition, the outcome in the assay with MC-38 [6] was Active.
`CCCNNC(=O)c1ccc(CNC(=O)c2cnc(-c3cccc4ccccc34)[nH]2)cc1`: the IC50 in the assay on HeLa is 1310 nM; at Histone deacetylase 7, more than 10000 nM; in the assay with MC-38 [1], 2300 nM; with HCT-116, 230 nM; at Histone deacetylase 3 it was 61 nM; in assay [5], 9680 nM. The viability at 4 µM in the assay on MC-38 [2] was 28.3%. The result in the assay with MC-38 [3] and in the assay on MC-38 [10] was inactive. The Activity in the assay with MC-38 [4] is given as 30.57%; with MC-38 [7], 22.9%; in the assay with MC-38 [8], 0.92%; in the assay with MC-38 [9] it was 9.01%. Also, the outcome in the assay with MC-38 [6] was Active.
